Laboratory results as given in the NIST ThermoML archive (doi:10.1021/je200813q).

Assay: mn = molality of the nth substance listed, in mol/kg
Details: 101.3 kPa, Liquid, Buoyancy - hydrostatic balance with magnetic suspension - one sinker

O=S(=O)([O-])[O-].[O]=[V+2] [oxovanadium(IV) sulfate] + O
mass density [kg/m3]
Details | 283.15 K | 293.15 K | 298.15 K | 303.15 K | 313.15 K | 323.15 K
m1 = 0.5 | 1074.6 | 1072.5 | 1070.7 | 1068 | 1065 | 1060.4
m1 = 0.8 | 1117.6 | 1114.8 | 1113 | 1110.7 | 1106.6 | 1101.7
m1 = 1 | 1144.9 | 1141.9 | 1139.8 | 1137.6 | 1133.3 | 1128.4
m1 = 1.2 | 1171.8 | 1169.5 | 1167.2 | 1164.6 | 1159.9 | 1154.7
m1 = 1.5 | 1211.3 | 1207.8 | 1205.3 | 1202.7 | 1198.3 | 1192.4
m1 = 1.8 | 1249.6 | 1245.6 | 1242.9 | 1240.4 | 1235.3 | 1229.9
m1 = 2 | 1274.1 | 1270 | 1267.4 | 1264.7 | 1259.6 | 1253.9
m1 = 2.2 | 1298.2 | 1293.9 | 1291.2 | 1288.8 | 1283.4 | 1277.6
m1 = 2.5 | 1333.7 | 1329.3 | 1326.5 | 1323.9 | 1318.5 | 1312.7
m1 = 2.8 | 1367.1 | 1362.8 | 1359.8 | 1357.2 | 1351.6 | 1345.6
m1 = 3 | 1389.5 | 1384.6 | 1381.3 | 1378.8 | 1373.4 | 1367.5
